Assays:
MPP+ treated PC-12 cells = test: Effect on MPP+ treated PC-12 cells (neuroprotection, LDH release); format: cell-based; details: 1000 μM MPP+ for 48 hours, LDH in medium
Description: Pheochromocytoma PC-12 cells (at a density of 200,000 cells/well) were cultured for 10 days with 50 ng/ml NGF on 6-well culture dishes coated with […] rat tail type I collagen (BD Biosciences, Bedford, Mass., USA). At the day of the experiment the morphological differentiation of the cells was very advanced (typical network formation). In order to initiate the neurotoxic insult, cells were treated with 1000 μM of 1-methyl-4-phenylpyrdinium (MPP+) iodide salt from RBI chemicals (Natick, Mass., USA) for 48 hours in the absence or presence of tested compounds, added to the culture 30 min. prior to MPP+ administration. […] At the cellular level, neuronal cell death is induced by several mechanisms including pathological concentrations of intracellular calcium and free oxygen radicals. Therefore the positive controls in this experiment were nimodipine at the concentration of 10 μM (RBI chemicals, Natick, Mass., USA) (a potent L-type calcium channel blocker) and 4-hydroxy-2,2,6,6-tetramethylpiperidyne-1-oxyl (tempol, a potent antioxidant) at a concentration of 500 μM, (Sigma, St Louis, Mo., USA). At the end of the experiment cell death was measured by assessing Lactate dehydrogenase (LDH) activity in the medium. High medium LDH indicated increased neuronal death that promoted leakage of this cytoplasmic enzyme into the medium.
Measuring lactate dehydrogenase activity in the medium was performed using a Sigma Diagnostics LD-L reagent. LDH activity was spectrophotometrically monitored at 340 nm by following the rate of conversion of oxidized nicotinamide adenine dinucleotide (NAD^+) to the reduced form of (NADH). Total LDH of each culture (extracellular+intracellular) was obtained by measuring LDH in the medium after freezing and thawing of the cultures. Basal LDH release was measured in untreated cultures (no MPP+). The neurotoxic effect was calculated according to the formula: (LDHs−LDHb)/LDHt×100. (s=sample; b=basal; t=total). Each compound was tested in sixplicate.
To calculate the percentage of neuroprotection for each set of sixplicate experiments, the average neurotoxicity was calculated and the following calculation was undertaken: 100−([neurotoxicity test compound/neurotoxicity MPP^+]×100).

EAE = test: Experimental Allergic Encephalomyelitis (EAE) model of MS; format: in vivo, mice; details: for incidence Value: mice, 10/group; for GMS % inhibition (first GMS column) / GMS % inhibition (second GMS column) / incidence % inhibition: vs methyl cellulose control; for GMS Value (first GMS column) / GMS Value (second GMS column): EAE score scale 0-5
[1] = Dose 1 μM, NGF-differentiated PC-12 cells
[2] = Dose 10 μM, NGF-differentiated PC-12 cells
[3] = 2 × 10 mg/kg oral (twice a day)

SMILES | % neuroprotection (MPP+ treated PC-12 cells; [1]) | % neuroprotection (MPP+ treated PC-12 cells; [2]) | Mean duration (EAE; 2 × 5 mg/kg oral) [days] | incidence Value (EAE; 2 × 5 mg/kg oral (twice a day)) | GMS % inhibition (first GMS column) (EAE; 2 × 5 mg/kg oral) [%] | GMS % inhibition (second GMS column) (EAE; 2 × 5 mg/kg oral) [%] | incidence % inhibition (EAE; 2 × 5 mg/kg oral) [%] | GMS Value (first GMS column) (EAE; 2 × 5 mg/kg oral) | GMS Value (second GMS column) (EAE; 2 × 5 mg/kg oral) | Mean duration (EAE; 2 × 10 mg/kg oral) [days] | incidence Value (EAE; [3]) | GMS % inhibition (first GMS column) (EAE; 2 × 10 mg/kg oral) [%] | GMS % inhibition (second GMS column) (EAE; 2 × 10 mg/kg oral) [%] | incidence % inhibition (EAE; 2 × 10 mg/kg oral) [%] | GMS Value (first GMS column) (EAE; 2 × 10 mg/kg oral) | GMS Value (second GMS column) (EAE; 2 × 10 mg/kg oral) | % neuroprotection (MPP+ treated PC-12 cells; Dose 1000 μM (positive control)) [%]
C#CCNC1CCc2cc3sc(N)nc3cc21.Cl.Cl (stereo not drawn) [Compound A-1, N5-prop-2-ynyl-6,7-dihydro-5H-1-thia-3-aza-s-indacene-2,5-diamine diHCl] | 50% | 60% | 3.0 ± 6.3 | 2/10 | 40.0 | 33.3 | 50.0 | 0.6 ± 1.3 | 0.4 ± 0.8 | 1.8 ± 5.7 | 1/10 | 70.0 | 66.7 | 75.0 | 0.3 ± 0.9 | 0.2 ± 0.6 | 
C#CCNC1CCc2ccc3nc(N)sc3c21.Cl.Cl (stereo not drawn) [Compound B-1, N8-prop-2-ynyl-7,8-dihydro-6H-1-thia-3-aza-as-indacene-2,8-diamine diHCl] | 60-87% | 58-81% | 0.1 ± 0.3 | 1/10 | 90.0 | 99.2 | 75.0 | 0.1 ± 0.3 | 0.005 ± 0.02 | 3.3 ± 7.0 | 2/10 | 60.0 | 50.0 | 50.0 | 0.4 ± 1.0 | 0.3 ± 0.8 | 
CC1(C)CC(O)CC(C)(C)N1[O] [Tempol, 4-hydroxy-2,2,6,6-tetramethylpiperidyne-1-oxyl, reference compound] |  |  |  |  |  |  |  |  |  |  |  |  |  |  |  |  | 100
